Data published in PubChem BioAssay AID2060338 (Molecular Pharmacology Branch, DTP, NCI, 2025).
Values joined by “and” are separate entries in the source; they are usually repeats but may differ in a detail not shown here. Equal values may be shown once.

System: 556581-035-R-J1-PDC spheroids with HUVEC/MSC, viability
Experiment: Anticancer human tumor 556581-035-R-J1-PDC patient-derived ovarian carcinoma cell line growth inhibition [IpAb]
Conditions: for viability, T/C: stronger effect = lower value
Excerpt: Combinatorial screen of targeted agents with ipatasertib and abemaciclib in multi-cell type tumor spheroids
A high-throughput screen of multi-cell type tumor spheroids was designed to identify active combinations of targeted small molecules and ipatasertib or abemaciclib. Complex spheroids include a stromal component modeled by human endothelial cells (HUVEC) and fibroblasts modeled by human mesenchymal stem cells (MSCs). The concentration ranges selected for each drug and investigational agent were based upon clinically achievable concentrations if the clinical Cmax of the agent was known.
Compounds. The drugs and investigational agents: ipatasertib (NSC767898), abemaciclib(NSC768073), selumetinib (NSC741078), trametinib (758246), adavosertib (NSC754352), everolimus (NSC733504), sapanisertib (NSC764658), vemurafenib (NSC761431), venetoclax (NSC766270), copanlisib (NSC809693), apelisib (NSC765974), palbociblib (NSC758247), vemurafenib (NSC761431), dabrafenib (NSC764134), ravoxertinib (NSC781343), BMS-387032 (NSC767048), sotorasib (NSC818433), talazoparib (NSC767125) and afursertib (NSC778305), were obtained from the National Cancer Institute (NCI) Developmental Therapeutics Program Chemical Repository. The FDA-approved anticancer drug set is available from the NCI Developmental Therapeutics Program. […] The stock solutions were prepared in dimethyl sulfoxide (DMSO, Sigma-Aldrich, St. Louis, MO, cat. D2650) at 800-fold the tested concentration and stored at -70 degrees C prior to their use. All drugs and investigational agents were tested over a range starting from a high concentration at or near the clinical Cmax and decreasing in half-log increments. If the clinical Cmax for an agent had not been determined, the highest concentration tested was 10 microM.
NCI60 Cell Culture. NCI60 cell lines were obtained from the NCI Developmental Therapeutics Program Tumor Repository. For each lot of cells, the Repository performed Applied Biosystems AmpFLSTR Identifiler testing with PCR amplification to confirm consistency with the published Identifier STR profile for each cell line. Cells were kept in continuous culture for no more than 20 passages. The optimal seeding densities for each of the cell lines at each time point assessed were determined prior to performing the concentration response studies. Briefly, the NCI60 human tumor lines were grown as monolayers in RPMI 1640 medium supplemented with 10% FBS and 2 mmol/L L-glutamine.
An additional 9 lines were from the NCI60 cell line panel including MDA-MB-231 breast carcinoma, MDA-MB-468 breast carcinoma, MCF7 breast carcinoma, Hs578T breast carcinoma, MALME-3M melanoma, SK-MEL-2 melanoma, SK-OV-3 ovarian carcinoma, DU-145 prostate carcinoma, PC-3 prostate carcinoma, all cell lines along with major genetic alterations are listed on Table 2. Pooled donor human umbilical vein endothelial cells (HUVEC, Lonza, cat. CC-2519) and human mesenchymal stem cells (hMSC, Lonza, cat. PT-2501) were purchased from Lonza (Walkersville, MD).
PDMR cell lines were grown in complete medium (DC medium): Dulbecco's modified Eagle's medium (DMEM)/F12 supplemented with 5% fetal bovine serum (FBS), 2 mM L-glutamine, 100 U/mL penicillin and 100 µg/ml streptomycin, 0.4 µg/ml hydrocortisone, 10 ng/ml epidermal growth factor (EGF) recombinant human protein, 24 µg/mL adenine, and 0.1 mg/mL primocin. During culture from frozen stock vials, PDMR cells were cultured in the same medium containing 10 µM Y-27632 (see Table 3). The PDCs were cultured in complete DMEM/F12 media without 10 microM Y-27632 dihydrochloride for at least two passages prior to the screen. The pooled donor HUVEC and hMSC were cultured in endothelial cell growth medium 2 (PromoCell, Heidelberg, Germany, cat. C-22011) and mesenchymal stem cell growth medium 2 (PromoCell, cat. C-28009), respectively. For all experiments, HUVEC and hMSC were used at passages </=5.
[…]
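Further: spheroids exposed to compounds for 7 days before readout.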

SMILES: Cn1cnc2c(F)c(Nc3ccc(Br)cc3Cl)c(C(=O)NOCCO)cc21
- viability, T/C (compound 0.00949 µM): 94.9% and 121%
- viability, T/C (compound 0.03 µM): 95% and 99.7%
- viability, T/C (compound 0.0949 µM): 92.9% and 109%
- viability, T/C (compound 0.3 µM): 74.6% and 91.1%
- viability, T/C (compound 0.949 µM): 45.2% and 43%
- viability, T/C (compound 3 µM): 14.4% and 14%
- IC50 (curve of compound): 0.779 µM and 0.805 µM

SMILES: Cn1ncc(Cl)c1-c1cc(C(=O)NC(CN)Cc2cccc(F)c2)sc1Cl (stereo not drawn)
- viability, T/C (compound 0.0316 µM): 90.6% and 96.9%
- viability, T/C (compound 0.1 µM): 81% and 74.5%
- viability, T/C (compound 0.316 µM): 71.5% and 69.2%
- viability, T/C (compound 1 µM): 60.2% and 70.8%
- viability, T/C (compound 3.16 µM): 52.5% and 47.6%
- viability, T/C (compound 10 µM): 0.3% and 0.29%
- IC50 (curve of compound): 2.32 µM and 2.41 µM

SMILES: Cn1nccc1Nc1nccc(-c2ccn(C(CO)c3ccc(Cl)c(F)c3)c(=O)c2)n1 (stereo not drawn)
- viability, T/C (compound 0.0316 µM): 114% and 133%
- viability, T/C (compound 0.1 µM): 117% and 135%
- viability, T/C (compound 0.316 µM): 103% and 124%
- viability, T/C (compound 1 µM): 86.2% and 104%
- viability, T/C (compound 3.16 µM): 61.3% and 88.7%
- viability, T/C (compound 10 µM): 17.8% and 38.4%
- IC50 (curve of compound): 4.16 µM and 7.69 µM

SMILES: Cn1ncnc1[C@H]1c2n[nH]c(=O)c3cc(F)cc(c23)N[C@@H]1c1ccc(F)cc1
- viability, T/C (compound 0.000316 µM): 120% and 97.9%
- viability, T/C (compound 0.001 µM): 106% and 94.6%
- viability, T/C (compound 0.00316 µM): 91.1% and 85.3%
- viability, T/C (compound 0.01 µM): 76.8% and 86.8%
- viability, T/C (compound 0.0316 µM): 73.8% and 78.4%
- viability, T/C (compound 0.1 µM): 68% and 62.8%
- IC50 (curve of compound): > 0.1 µM

SMILES: Cn1cnc2c(F)c(Nc3ccc(Br)cc3Cl)c(C(=O)NOCCO)cc21 + CC(C)NCC(C(=O)N1CCN(c2ncnc3c2C(C)CC3O)CC1)c1ccc(Cl)cc1
- IC50 (curve of first compound, second compound 0.1 µM): 0.473 µM
- IC50 (curve of first compound, second compound 0.316 µM): 0.218 µM
- IC50 (curve of first compound, second compound 1 µM): 0.0553 µM
- IC50 (curve of first compound, second compound 3.16 µM): < 0.00949 µM
- IC50 (curve of first compound, second compound 10 µM): < 0.00949 µM
- viability, T/C (second compound 0.1 µM, first compound 0.00949 µM): 91.4%
- viability, T/C (second compound 0.1 µM, first compound 0.03 µM): 89.3%
- viability, T/C (second compound 0.1 µM, first compound 0.0949 µM): 81.6%
- viability, T/C (second compound 0.1 µM, first compound 0.3 µM): 55.5%
- viability, T/C (second compound 0.1 µM, first compound 0.949 µM): 38.1%
- viability, T/C (second compound 0.1 µM, first compound 3 µM): 14.7%
- viability, T/C (second compound 0.316 µM, first compound 0.00949 µM): 69.1%
- viability, T/C (second compound 0.316 µM, first compound 0.03 µM): 60.5%
- viability, T/C (second compound 0.316 µM, first compound 0.0949 µM): 61%
- viability, T/C (second compound 0.316 µM, first compound 0.3 µM): 46.4%
- viability, T/C (second compound 0.316 µM, first compound 0.949 µM): 28.6%
- viability, T/C (second compound 0.316 µM, first compound 3 µM): 14.2%
- viability, T/C (second compound 1 µM, first compound 0.00949 µM): 59.7%
- viability, T/C (second compound 1 µM, first compound 0.03 µM): 55.6%
- viability, T/C (second compound 1 µM, first compound 0.0949 µM): 46.1%
- viability, T/C (second compound 1 µM, first compound 0.3 µM): 31.7%
- viability, T/C (second compound 1 µM, first compound 0.949 µM): 20.4%
- viability, T/C (second compound 1 µM, first compound 3 µM): 7.02%
- viability, T/C (second compound 3.16 µM, first compound 0.00949 µM): 45.9%
- viability, T/C (second compound 3.16 µM, first compound 0.03 µM): 40.7%
- viability, T/C (second compound 3.16 µM, first compound 0.0949 µM): 33.9%
- viability, T/C (second compound 3.16 µM, first compound 0.3 µM): 25%
- viability, T/C (second compound 3.16 µM, first compound 0.949 µM): 15.4%
- viability, T/C (second compound 3.16 µM, first compound 3 µM): 6.95%
- viability, T/C (second compound 10 µM, first compound 0.00949 µM): 37.3%
- viability, T/C (second compound 10 µM, first compound 0.03 µM): 38.6%
- viability, T/C (second compound 10 µM, first compound 0.0949 µM): 29.6%
- viability, T/C (second compound 10 µM, first compound 0.3 µM): 21.2%
- viability, T/C (second compound 10 µM, first compound 0.949 µM): 13.8%
- viability, T/C (second compound 10 µM, first compound 3 µM): 3.58%
